We go through 53 compounds from US12357631B2 (priority 2018, dated 2025).

The structures appear in SMILES notation.

In the test the target is PB2 (Influenza A virus, UniProt P03428). The test is described as follows: biochemical. Type of test: binding.
Chain of PB2 (P03428 whole entry, looked up): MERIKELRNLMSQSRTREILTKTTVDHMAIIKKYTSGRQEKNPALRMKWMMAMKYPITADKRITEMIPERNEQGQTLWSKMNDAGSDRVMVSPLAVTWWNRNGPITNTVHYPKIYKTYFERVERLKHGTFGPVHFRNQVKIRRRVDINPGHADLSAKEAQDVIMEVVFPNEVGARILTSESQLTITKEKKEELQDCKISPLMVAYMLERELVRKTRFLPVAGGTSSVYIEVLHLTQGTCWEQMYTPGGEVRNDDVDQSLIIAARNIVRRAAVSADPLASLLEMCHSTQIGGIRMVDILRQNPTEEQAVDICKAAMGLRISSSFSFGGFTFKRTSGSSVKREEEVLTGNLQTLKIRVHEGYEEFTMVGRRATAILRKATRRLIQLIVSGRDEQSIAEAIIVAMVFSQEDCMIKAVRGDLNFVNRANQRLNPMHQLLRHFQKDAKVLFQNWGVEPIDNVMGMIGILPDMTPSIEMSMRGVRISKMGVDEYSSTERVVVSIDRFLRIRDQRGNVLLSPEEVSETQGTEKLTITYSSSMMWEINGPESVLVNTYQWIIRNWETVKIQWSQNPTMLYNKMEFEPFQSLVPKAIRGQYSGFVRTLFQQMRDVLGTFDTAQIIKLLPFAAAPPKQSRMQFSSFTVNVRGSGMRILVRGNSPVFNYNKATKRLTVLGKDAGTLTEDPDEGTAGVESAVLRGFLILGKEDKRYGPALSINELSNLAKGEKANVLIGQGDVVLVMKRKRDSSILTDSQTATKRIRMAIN
By EC50 is commonly meant the concentration giving half of the maximal effect. Lower therefore signals greater potency. For the compound `O=C(NCc1ccc(F)cc1)OCc1ccnc(C(=O)N[C@@H]2CCC[C@H](Nc3nc(-c4c[nH]c5ncc(F)cc45)ncc3F)C2)c1` [Compound A92], the EC50 was over 100 µM.
`O=C(NCc1cccnc1)OCc1ccnc(C(=O)N[C@@H]2CCC[C@H](Nc3nc(-c4c[nH]c5ncc(F)cc45)ncc3F)C2)c1` [Compound A93]: the EC50 lay in the range of 5 to 25 µM.
Compound `O=C(NCCc1ccccc1)OCc1ccnc(C(=O)N[C@@H]2CCC[C@H](Nc3nc(-c4c[nH]c5ncc(F)cc45)ncc3F)C2)c1` [Compound A94] showed an EC50 of over 100 µM.
Next, `O=C(N[C@@H]1CCC[C@H](Nc2nc(-c3c[nH]c4ncc(F)cc34)ncc2F)C1)c1cc(COCCCCCOCc2ccc(F)cc2)ccn1` [Compound A95]: over 100 µM.
The compound `O=C(NCc1ccccn1)OCc1ccnc(C(=O)N[C@H]2CCC[C@@H](Nc3nc(-c4c[nH]c5ncc(F)cc45)ncc3F)C2)c1` [Compound A96] showed a concentration for a half-maximal effect (EC50) of 5 to 25 µM.
As to `O=C(NCc1ccc(C(=O)O)cc1)OCc1ccnc(C(=O)N[C@@H]2CCC[C@H](Nc3nc(-c4c[nH]c5ncc(F)cc45)ncc3F)C2)c1` [Compound A97], the 50% effective concentration (EC50) is under 5 µM.
On to `O=C(NCc1cccc(C(=O)O)c1)OCc1ccnc(C(=O)N[C@@H]2CCC[C@H](Nc3nc(-c4c[nH]c5ncc(F)cc45)ncc3F)C2)c1` [Compound A98], for which the EC50 was under 5 µM.
For `O=C(NCC(O)CO)OCc1ccnc(C(=O)N[C@H]2CCC[C@@H](Nc3nc(-c4c[nH]c5ncc(F)cc45)ncc3F)C2)c1` (some centres unmarked) [Compound A99], the EC50 is under 5 µM.
With `O=C(NCCc1ccc(Oc2ccccc2)cc1)OCc1ccnc(C(=O)N[C@H]2CCC[C@@H](Nc3nc(-c4c[nH]c5ncc(F)cc45)ncc3F)C2)c1` [Compound A100] the figure was over 100 µM; with `O=C(NCCc1ccc(F)cc1)OCc1ccnc(C(=O)N[C@H]2CCC[C@@H](Nc3nc(-c4c[nH]c5ncc(F)cc45)ncc3F)C2)c1` [Compound A101], over 100 µM; with `O=C(NCc1ccc(Oc2ccccc2)cc1)OCc1ccnc(C(=O)N[C@H]2CCC[C@@H](Nc3nc(-c4c[nH]c5ncc(F)cc45)ncc3F)C2)c1` [Compound A102], over 100 µM.
In the case of `O=C(N[C@H]1CCC[C@@H](Nc2nc(-c3c[nH]c4ncc(F)cc34)ncc2F)C1)c1cc(COCCCCCOCc2ccncc2)ccn1` [Compound A103], the EC50 is over 100 µM.
`O=C(NCC1CCCO1)OCc1ccnc(C(=O)N[C@H]2CCC[C@@H](Nc3nc(-c4c[nH]c5ncc(F)cc45)ncc3F)C2)c1` (some centres unmarked) [Compound A106] yielded an EC50 of 5 to 25 µM.
The compound `O=C(O)CNC(=O)OCc1ccnc(C(=O)N[C@@H]2CCC[C@H](Nc3nc(-c4c[nH]c5ncc(F)cc45)ncc3F)C2)c1` [Compound A107] gave an EC50 of under 5 µM.
`O=C(NCc1ccncc1)OCc1ccnc(C(=O)N[C@H]2CCC[C@@H](Nc3nc(-c4c[nH]c5ncc(F)cc45)ncc3F)C2)c1` [Compound A108] displayed an EC50 of 5 to 25 µM.
With `O=C(NCCc1cccc(Oc2ccccc2)c1)OCc1ccnc(C(=O)N[C@H]2CCC[C@@H](Nc3nc(-c4c[nH]c5ncc(F)cc45)ncc3F)C2)c1` [Compound A109] the figure was over 100 µM.
For the compound `O=C(O)CNCCNC(=O)OCc1ccnc(C(=O)N[C@@H]2CCC[C@H](Nc3nc(-c4c[nH]c5ncc(F)cc45)ncc3F)C2)c1` [Compound A110], the EC50 was in the range of 5 to 25 µM.
With `CCNC(=O)CNC(=O)OCc1ccnc(C(=O)N[C@H]2CCC[C@@H](Nc3nc(-c4c[nH]c5ncc(F)cc45)ncc3F)C2)c1` [Compound A111], the half-maximal effective concentration (EC50) lay in the range of 5 to 25 µM.
As to `CCOc1ccc(CNC(=O)OCc2ccnc(C(=O)N[C@H]3CCC[C@@H](Nc4nc(-c5c[nH]c6ncc(F)cc56)ncc4F)C3)c2)cc1` [Compound A112], the EC50 was over 100 µM.
`CCOCCOCc1cc(-c2ccnc(C(=O)N[C@H]3CCC[C@@H](Nc4nc(-c5c[nH]c6ncc(F)cc56)ncc4F)C3)c2)ccc1F` [Compound A113] showed an EC50 of over 100 µM.
The compound `O=C(NCCOCC(F)(F)F)OCc1ccnc(C(=O)N[C@H]2CCC[C@@H](Nc3nc(-c4c[nH]c5ncc(F)cc45)ncc3F)C2)c1` [Compound A114] returned an EC50 of 50 to 100 µM.
The compound `O=COCCOCCNC(=O)OCc1ccnc(C(=O)N[C@H]2CCC[C@@H](Nc3nc(-c4c[nH]c5ncc(F)cc45)ncc3F)C2)c1` [Compound A115] yielded an EC50 of under 5 µM.
Next, `CC(C)NCCNC(=O)OCc1ccnc(C(=O)N[C@H]2CCC[C@@H](Nc3nc(-c4c[nH]c5ncc(F)cc45)ncc3F)C2)c1` [Compound A116]: 5 to 25 µM; `CN1CCC(CNC(=O)OCc2ccnc(C(=O)N[C@H]3CCC[C@@H](Nc4nc(-c5c[nH]c6ncc(F)cc56)ncc4F)C3)c2)CC1` [Compound A117]: 5 to 25 µM; `O=C(O)COCCNC(=O)OCc1ccnc(C(=O)N[C@@H]2CCC[C@H](Nc3nc(-c4c[nH]c5ncc(F)cc45)ncc3F)C2)c1` [Compound A118]: under 5 µM.
Consider `O=C(NCc1cccc(Oc2ccccc2)c1)OCc1ccnc(C(=O)N[C@H]2CCC[C@@H](Nc3nc(-c4c[nH]c5ncc(F)cc45)ncc3F)C2)c1` [Compound A119], for which the concentration giving a half-maximal response (EC50) is over 100 µM.
Next, `O=C(NCC1COCCN1)OCc1ccnc(C(=O)N[C@H]2CCC[C@@H](Nc3nc(-c4c[nH]c5ncc(F)cc45)ncc3F)C2)c1` (some centres unmarked) [Compound A120]: 5 to 25 µM; `O=C(NCC(=O)N1CCOCC1)OCc1ccnc(C(=O)N[C@H]2CCC[C@@H](Nc3nc(-c4c[nH]c5ncc(F)cc45)ncc3F)C2)c1` [Compound A121]: 5 to 25 µM; `COc1ccccc1CNC(=O)OCc1ccnc(C(=O)N[C@H]2CCC[C@@H](Nc3nc(-c4c[nH]c5ncc(F)cc45)ncc3F)C2)c1` [Compound A122]: over 100 µM.
Next, `Cc1ccccc1CNC(=O)OCc1ccnc(C(=O)N[C@H]2CCC[C@@H](Nc3nc(-c4c[nH]c5ncc(F)cc45)ncc3F)C2)c1` [Compound A123]: over 100 µM; `O=C(NCc1ccccc1F)OCc1ccnc(C(=O)N[C@H]2CCC[C@@H](Nc3nc(-c4c[nH]c5ncc(F)cc45)ncc3F)C2)c1` [Compound A124]: over 100 µM; `O=C(NCc1cccc(F)c1)OCc1ccnc(C(=O)N[C@H]2CCC[C@@H](Nc3nc(-c4c[nH]c5ncc(F)cc45)ncc3F)C2)c1` [Compound A125]: over 100 µM.
Compound `COc1ccc(CNC(=O)OCc2ccnc(C(=O)N[C@H]3CCC[C@@H](Nc4nc(-c5c[nH]c6ncc(F)cc56)ncc4F)C3)c2)cc1OC` [Compound A126] gave an EC50 of over 100 µM.
`Cc1cccc(CNC(=O)OCc2ccnc(C(=O)N[C@H]3CCC[C@@H](Nc4nc(-c5c[nH]c6ncc(F)cc56)ncc4F)C3)c2)c1` [Compound A127] had an EC50 of over 100 µM.
In turn, `CCC(CC)OCCNC(=O)OCc1ccnc(C(=O)N[C@H]2CCC[C@@H](Nc3nc(-c4c[nH]c5ncc(F)cc45)ncc3F)C2)c1` [Compound A128] showed an EC50 of over 100 µM.
With `O=C(CNC(=O)OCc1ccnc(C(=O)N[C@H]2CCC[C@@H](Nc3nc(-c4c[nH]c5ncc(F)cc45)ncc3F)C2)c1)Nc1ccccc1C(=O)O` [Compound A129] the figure was under 5 µM; with `O=C(NCc1ccc2c(c1)OCO2)OCc1ccnc(C(=O)N[C@H]2CCC[C@@H](Nc3nc(-c4c[nH]c5ncc(F)cc45)ncc3F)C2)c1` [Compound A130], over 100 µM; with `CC(NC(=O)OCc1ccnc(C(=O)N[C@H]2CCC[C@@H](Nc3nc(-c4c[nH]c5ncc(F)cc45)ncc3F)C2)c1)c1ccc(F)cc1` (some centres unmarked) [Compound A131], over 100 µM.
Turning to `CCOc1ccccc1CNC(=O)OCc1ccnc(C(=O)N[C@H]2CCC[C@@H](Nc3nc(-c4c[nH]c5ncc(F)cc45)ncc3F)C2)c1` [Compound A133], the EC50 is over 100 µM.
Regarding `C[C@H](NC(=O)OCc1ccnc(C(=O)N[C@@H]2CCC[C@H](Nc3nc(-c4c[nH]c5ncc(F)cc45)ncc3F)C2)c1)C(=O)O` [Compound A134], the EC50 is under 5 µM.
Next, `CC(C)[C@H](NC(=O)OCc1ccnc(C(=O)N[C@@H]2CCC[C@H](Nc3nc(-c4c[nH]c5ncc(F)cc45)ncc3F)C2)c1)C(=O)O` [Compound A135]: 5 to 25 µM; `CC(NC(=O)OCc1ccnc(C(=O)N[C@H]2CCC[C@@H](Nc3nc(-c4c[nH]c5ncc(F)cc45)ncc3F)C2)c1)c1ccccn1` (some centres unmarked) [Compound A136]: 5 to 25 µM.
Turning to `Cc1ccc(CNC(=O)OCc2ccnc(C(=O)N[C@H]3CCC[C@@H](Nc4nc(-c5c[nH]c6ncc(F)cc56)ncc4F)C3)c2)cc1` [Compound A138], the EC50 was over 100 µM.
Next, `CCOc1ccc(CNC(=O)OC(C)c2ccnc(C(=O)N[C@H]3CCC[C@@H](Nc4nc(-c5c[nH]c6ncc(F)cc56)ncc4F)C3)c2)cc1` (some centres unmarked) [Compound A139]: over 100 µM; `C[C@@H](NC(=O)OCc1ccnc(C(=O)N[C@@H]2CCC[C@H](Nc3nc(-c4c[nH]c5ncc(F)cc45)ncc3F)C2)c1)C(=O)O` [Compound A141]: under 5 µM; `CC(C)[C@@H](NC(=O)OCc1ccnc(C(=O)N[C@@H]2CCC[C@H](Nc3nc(-c4c[nH]c5ncc(F)cc45)ncc3F)C2)c1)C(=O)O` [Compound A142]: under 5 µM.
Regarding `CC(NC(=O)OCc1ccnc(C(=O)N[C@H]2CCC[C@@H](Nc3nc(-c4c[nH]c5ncc(F)cc45)ncc3F)C2)c1)c1ccccc1F` (some centres unmarked) [Compound A143], the EC50 is over 100 µM.
On to `CCOc1ccc(C(C)NC(=O)OCc2ccnc(C(=O)N[C@H]3CCC[C@@H](Nc4nc(-c5c[nH]c6ncc(F)cc56)ncc4F)C3)c2)cc1` (some centres unmarked) [Compound A145], for which the EC50 was over 100 µM.
The compound `CCOc1ccc(CNC(=O)OCc2cc(C(=O)N[C@H]3CCC[C@@H](Nc4nc(-c5c[nH]c6ncc(F)cc56)ncc4F)C3)ncc2F)cc1` [Compound A147] had an EC50 of over 100 µM.
Turning to `CCNC(=O)C(NC(=O)OCc1ccnc(C(=O)N[C@H]2CCC[C@@H](Nc3nc(-c4c[nH]c5ncc(F)cc45)ncc3F)C2)c1)C(C)(C)C` (some centres unmarked) [Compound A148], the half-maximal effective concentration (EC50) lay in the range of 50 to 100 µM.
As to `CCNC(=O)C(NC(=O)OCc1ccnc(C(=O)N[C@H]2CCC[C@@H](Nc3nc(-c4c[nH]c5ncc(F)cc45)ncc3F)C2)c1)C(C)(C)C` (some centres unmarked) [Compound A149], the half-maximal effective concentration (EC50) was over 100 µM.
Compound `O=C(NCCOCCOCCOCCO)N[C@@H]1CCC[C@H](Nc2nc(-c3c[nH]c4ncc(F)cc34)ncc2F)C1` [Compound A166] gave an EC50 of 5 to 25 µM.
`CCOCCOCCOCCNC(=O)N[C@@H]1CCC[C@H](Nc2nc(-c3c[nH]c4ncc(F)cc34)ncc2F)C1` [Compound A167]: the EC50 is over 100 µM.
